# Paper PMC4979471 (Cell Death Discovery, 2015)
# Where two headings read alike, the source gives them in different places.
# Assays:
# Experiment in all cases: Kinase selectivity, P33-radiolabeled assay
# Type in all cases: biochemical
# Settings in all cases: 10 μM ATP
# [1] = target: T1, MST2/STK3 (Homo sapiens, UniProt Q13188)
# T1 construct: purchased Reaction Biology Corp
# T1 sequence (Q13188 1-491): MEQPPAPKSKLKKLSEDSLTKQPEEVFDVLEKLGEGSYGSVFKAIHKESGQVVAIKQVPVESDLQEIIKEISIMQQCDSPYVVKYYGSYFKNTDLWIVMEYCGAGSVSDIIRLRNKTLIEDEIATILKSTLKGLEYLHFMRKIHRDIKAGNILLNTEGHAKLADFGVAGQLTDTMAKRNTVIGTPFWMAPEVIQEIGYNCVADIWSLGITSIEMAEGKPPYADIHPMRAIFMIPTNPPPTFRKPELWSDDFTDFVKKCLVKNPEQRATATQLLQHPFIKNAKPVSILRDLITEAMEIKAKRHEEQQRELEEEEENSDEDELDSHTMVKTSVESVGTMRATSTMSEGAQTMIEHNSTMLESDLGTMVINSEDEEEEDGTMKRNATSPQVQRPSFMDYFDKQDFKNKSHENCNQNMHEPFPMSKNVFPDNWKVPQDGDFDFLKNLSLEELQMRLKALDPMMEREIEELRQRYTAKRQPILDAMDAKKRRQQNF
# Procedure, shortened: (§1)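 Values show % enzyme activity normalised to DMSO vehicle. They come from one 10 μM compound concentration run twice, at an ATP level of 10 μM.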
# [2] = target: T2, DDR2 (Homo sapiens, UniProt Q16832)
# T2 construct: purchased Reaction Biology Corp
# T2 sequence (Q16832 22-855): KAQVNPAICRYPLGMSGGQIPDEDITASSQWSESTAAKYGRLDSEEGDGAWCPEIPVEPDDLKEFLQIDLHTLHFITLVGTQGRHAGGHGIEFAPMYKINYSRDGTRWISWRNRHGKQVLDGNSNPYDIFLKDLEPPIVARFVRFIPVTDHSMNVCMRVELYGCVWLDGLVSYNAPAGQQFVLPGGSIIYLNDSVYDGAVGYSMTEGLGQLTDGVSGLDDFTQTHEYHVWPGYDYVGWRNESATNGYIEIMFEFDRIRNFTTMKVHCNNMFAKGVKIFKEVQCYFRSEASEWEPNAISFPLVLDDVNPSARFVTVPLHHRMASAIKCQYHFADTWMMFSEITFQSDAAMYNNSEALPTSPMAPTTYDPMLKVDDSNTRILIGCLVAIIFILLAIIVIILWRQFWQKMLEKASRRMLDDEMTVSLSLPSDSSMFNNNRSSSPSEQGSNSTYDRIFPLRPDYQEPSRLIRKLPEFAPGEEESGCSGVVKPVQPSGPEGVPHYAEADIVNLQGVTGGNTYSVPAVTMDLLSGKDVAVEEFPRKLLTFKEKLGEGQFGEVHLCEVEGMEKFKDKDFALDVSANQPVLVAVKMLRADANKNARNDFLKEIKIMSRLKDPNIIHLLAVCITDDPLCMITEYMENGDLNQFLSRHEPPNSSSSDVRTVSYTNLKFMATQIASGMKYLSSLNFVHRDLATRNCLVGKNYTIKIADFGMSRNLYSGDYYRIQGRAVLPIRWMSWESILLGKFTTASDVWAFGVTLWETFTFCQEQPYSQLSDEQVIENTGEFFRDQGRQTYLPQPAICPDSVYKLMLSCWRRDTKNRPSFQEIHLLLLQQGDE
# Procedure, shortened: as §1
# [3] = target: T3, TSSK3/STK22C (Homo sapiens, UniProt Q96PN8)
# T3 construct: purchased Reaction Biology Corp
# T3 sequence (Q96PN8 1-268): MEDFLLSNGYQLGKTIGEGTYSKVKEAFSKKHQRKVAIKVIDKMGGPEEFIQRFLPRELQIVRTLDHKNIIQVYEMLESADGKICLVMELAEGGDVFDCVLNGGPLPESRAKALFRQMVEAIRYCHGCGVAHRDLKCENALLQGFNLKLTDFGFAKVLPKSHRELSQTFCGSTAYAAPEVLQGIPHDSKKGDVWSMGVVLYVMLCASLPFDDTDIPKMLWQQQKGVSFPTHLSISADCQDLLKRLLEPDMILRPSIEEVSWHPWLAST
# Procedure, shortened: as §1
# [4] = target: T4, AKT3 (Homo sapiens, UniProt Q9Y243)
# T4 construct: purchased Reaction Biology Corp
# Procedure, shortened: as §1
# [5] = target: T5, RET (Homo sapiens, UniProt P07949)
# T5 construct: purchased Reaction Biology Corp
# Procedure, shortened: as §1
# [6] = target: T6, DYRK3 (Homo sapiens, UniProt O43781)
# T6 construct: purchased Reaction Biology Corp
# T6 sequence (O43781 1-588): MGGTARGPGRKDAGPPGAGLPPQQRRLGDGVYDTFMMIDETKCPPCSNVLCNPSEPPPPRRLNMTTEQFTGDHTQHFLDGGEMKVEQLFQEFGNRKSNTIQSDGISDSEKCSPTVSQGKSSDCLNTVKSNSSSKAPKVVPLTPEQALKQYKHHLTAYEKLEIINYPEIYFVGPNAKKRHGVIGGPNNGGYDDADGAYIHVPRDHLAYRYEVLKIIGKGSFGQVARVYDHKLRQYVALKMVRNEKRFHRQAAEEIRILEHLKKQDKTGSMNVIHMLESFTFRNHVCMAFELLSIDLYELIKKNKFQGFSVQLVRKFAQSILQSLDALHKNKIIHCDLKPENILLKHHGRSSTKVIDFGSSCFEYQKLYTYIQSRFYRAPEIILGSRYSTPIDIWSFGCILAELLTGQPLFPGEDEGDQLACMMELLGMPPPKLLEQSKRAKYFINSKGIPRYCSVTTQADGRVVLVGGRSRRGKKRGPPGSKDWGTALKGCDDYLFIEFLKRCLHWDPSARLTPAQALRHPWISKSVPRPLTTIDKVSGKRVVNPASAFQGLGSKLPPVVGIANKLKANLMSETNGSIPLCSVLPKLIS
# Procedure, shortened: as §1
# [7] = read-out: % Enzyme Activity (relative to DMSO controls) AVG
# [8] = read-out: % Enzyme Activity (relative to DMSO controls) Data 1
# [9] = read-out: % Enzyme Activity (relative to DMSO controls) Data 2
# T4 sequence (Q9Y243 whole entry): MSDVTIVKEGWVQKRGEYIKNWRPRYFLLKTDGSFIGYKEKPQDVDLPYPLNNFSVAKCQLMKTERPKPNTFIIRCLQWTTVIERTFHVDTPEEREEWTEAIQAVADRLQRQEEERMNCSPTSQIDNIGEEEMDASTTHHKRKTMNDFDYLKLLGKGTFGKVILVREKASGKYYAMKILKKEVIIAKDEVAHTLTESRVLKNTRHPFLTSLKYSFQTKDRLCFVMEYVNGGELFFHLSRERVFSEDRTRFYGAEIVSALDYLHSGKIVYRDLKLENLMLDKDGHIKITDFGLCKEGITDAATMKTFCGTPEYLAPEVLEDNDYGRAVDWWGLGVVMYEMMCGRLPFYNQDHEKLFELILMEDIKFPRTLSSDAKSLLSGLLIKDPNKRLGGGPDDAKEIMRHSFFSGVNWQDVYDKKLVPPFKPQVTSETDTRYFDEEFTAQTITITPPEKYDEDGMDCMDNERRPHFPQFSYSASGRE
# T5 sequence (P07949 29-1114): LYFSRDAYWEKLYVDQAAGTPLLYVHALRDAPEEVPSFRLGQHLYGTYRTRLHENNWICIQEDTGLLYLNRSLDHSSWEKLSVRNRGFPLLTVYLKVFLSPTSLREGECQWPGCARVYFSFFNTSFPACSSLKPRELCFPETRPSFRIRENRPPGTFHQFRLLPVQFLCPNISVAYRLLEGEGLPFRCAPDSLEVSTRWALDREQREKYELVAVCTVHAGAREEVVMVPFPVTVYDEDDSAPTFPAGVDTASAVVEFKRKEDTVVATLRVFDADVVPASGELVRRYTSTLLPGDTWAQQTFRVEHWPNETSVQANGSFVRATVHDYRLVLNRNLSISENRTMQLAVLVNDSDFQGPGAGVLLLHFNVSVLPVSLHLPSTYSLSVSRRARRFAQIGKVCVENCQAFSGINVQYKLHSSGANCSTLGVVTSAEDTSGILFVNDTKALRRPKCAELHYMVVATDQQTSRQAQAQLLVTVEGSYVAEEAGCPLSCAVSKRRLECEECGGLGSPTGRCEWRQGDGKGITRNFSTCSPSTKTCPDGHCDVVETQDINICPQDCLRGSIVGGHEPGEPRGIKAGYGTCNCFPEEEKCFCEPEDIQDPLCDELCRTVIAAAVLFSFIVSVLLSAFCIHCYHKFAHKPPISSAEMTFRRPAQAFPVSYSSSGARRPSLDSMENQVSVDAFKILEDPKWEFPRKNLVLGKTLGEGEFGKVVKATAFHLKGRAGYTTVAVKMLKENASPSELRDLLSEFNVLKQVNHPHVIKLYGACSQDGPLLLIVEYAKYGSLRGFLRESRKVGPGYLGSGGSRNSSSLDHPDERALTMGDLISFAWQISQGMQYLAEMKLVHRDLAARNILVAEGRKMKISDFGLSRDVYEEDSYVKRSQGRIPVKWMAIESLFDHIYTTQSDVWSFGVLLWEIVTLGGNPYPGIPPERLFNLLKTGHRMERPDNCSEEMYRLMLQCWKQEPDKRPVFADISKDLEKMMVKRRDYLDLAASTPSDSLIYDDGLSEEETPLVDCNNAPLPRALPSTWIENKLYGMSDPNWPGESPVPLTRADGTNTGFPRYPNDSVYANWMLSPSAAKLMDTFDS
structure (smiles),measurement,setting,value
CC(C)(C)C(=O)N1N=CC[C@H]1c1ccccc1 [GSK′963],remaining activity at 10 µM,[1]; [7],107%
same,remaining activity at 10 µM,[1]; [8],105%
same,remaining activity at 10 µM,[1]; [9],109%
same,remaining activity at 10 µM,[2]; [7],93.2%
same,remaining activity at 10 µM,[2]; [8],94%
same,remaining activity at 10 µM,[2]; [9],92.4%
same,remaining activity at 10 µM,[3]; [7],131%
same,remaining activity at 10 µM,[3]; [8],129%
same,remaining activity at 10 µM,[3]; [9],133%
same,remaining activity at 10 µM,[4]; [7],102%
same,remaining activity at 10 µM,[4]; [8],100%
same,remaining activity at 10 µM,[4]; [9],103%
same,remaining activity at 10 µM,[5]; [7],108%
same,remaining activity at 10 µM,[5]; [8],107%
same,remaining activity at 10 µM,[5]; [9],108%
same,remaining activity at 10 µM,[6]; [7],115%
same,remaining activity at 10 µM,[6]; [8],113%
same,remaining activity at 10 µM,[6]; [9],116%
